For the assay, the system named is Botrytis cinerea (B05.10). The assay can be described thus: Resazurin antifungal assay of 180 alpha-factor peptide variants towards Botrytis (Example 2). Format: cell-based. The settings on record: % inhibition of fungal growth, Botrytis conidia, resazurin; for Inhibition at 50 μM: peptide 50 μM; for Inhibition at 100 μM: peptide 100 μM; for Inhibition at 10 μM: peptide 10 μM; for Inhibition at 15 μM: peptide 15 μM; for Inhibition at 20 μM: peptide 20 μM. The essentials: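 B. cinerea B05.10 conidia (5000/well) were exposed to peptides at 100, 50, 20, 15 and 10 μM final for 24 h at 20° C. Resazurin was then added and fluorescence read at 570/620 nm. Percent growth inhibition was calculated against conidia-only wells, with four technical replicates.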

Molecules are shown by their SMILES. Peptide text beside a SMILES is read from it.

Consider `CSCC[C@H](NC(=O)[C@@H]1CCCN1C(=O)[C@H](CCC(N)=O)NC(=O)CNC(=O)[C@@H]1CCCN1C(=O)[C@H](Cc1ccc(O)cc1)NC(=O)[C@H](CC(C)C)NC(=O)[C@H](CCC(N)=O)NC(=O)[C@@H](NC(=O)[C@H](Cc1c[nH]c2ccccc12)NC(=O)[C@H](CCC(=O)O)NC(=O)[C@@H](N)CCCCN)C(C)C)C(=O)N[C@@H](Cc1ccc(O)cc1)C(=O)O` [compound 125] (H-KEWVQLYPGQPMY-OH; N-terminus and C-terminus assumed), for which the “Inhibition at 50 μM” value is reported as less than 90% and the “Inhibition at 100 μM” value is recorded as less than 90%.
Turning to `CSCC[C@H](NC(=O)[C@@H]1CCCN1C(=O)[C@H](CCC(N)=O)NC(=O)CNC(=O)[C@H](CCCNC(=N)N)NC(=O)[C@H](CCCCN)NC(=O)[C@H](CC(C)C)NC(=O)[C@H](CCC(N)=O)NC(=O)CNC(=O)[C@H](CC(=O)O)NC(=O)[C@H](Cc1c[nH]cn1)NC(=O)[C@@H]1CCCN1)C(=O)N[C@@H](Cc1ccc(O)cc1)C(=O)O` [compound 147] (H-PHDGQLKRGQPMY-OH; N-terminus and C-terminus assumed), the “Inhibition at 50 μM” value is recorded as less than 90% and the “Inhibition at 100 μM” value is reported as less than 90%.
`CSCC[C@H](NC(=O)[C@@H]1CCCN1C(=O)[C@H](CCC(N)=O)NC(=O)CNC(=O)[C@H](CC(C)C)NC(=O)[C@H](CCCCN)NC(=O)[C@H](CC(C)C)NC(=O)[C@H](CCC(N)=O)NC(=O)[C@H](CC(C)C)NC(=O)[C@@H](NC(=O)[C@H](CCCCN)NC(=O)[C@@H](N)CCCCN)C(C)C)C(=O)N[C@@H](Cc1ccc(O)cc1)C(=O)O` [compound 115] (H-KKVLQLKLGQPMY-OH; N-terminus and C-terminus assumed): the “Inhibition at 50 μM” value was less than 90% and the “Inhibition at 100 μM” value is recorded as 99.72%.
For `CSCC[C@H](NC(=O)[C@@H]1CCCN1C(=O)[C@H](CCC(N)=O)NC(=O)CNC(=O)[C@@H]1CCCN1C(=O)[C@H](Cc1c[nH]c2ccccc12)NC(=O)[C@H](Cc1ccccc1)NC(=O)[C@H](CCC(N)=O)NC(=O)[C@@H](NC(=O)[C@H](CO)NC(=O)[C@H](Cc1c[nH]cn1)NC(=O)[C@@H](N)Cc1c[nH]c2ccccc12)C(C)C)C(=O)N[C@@H](Cc1ccc(O)cc1)C(=O)O` [compound 178] (H-WHSVQFWPGQPMY-OH; N-terminus and C-terminus assumed), in that order: less than 90% and 97.30%.
Taken in the same sequence, the figures for `CSCC[C@H](NC(=O)[C@@H]1CCCN1C(=O)[C@H](CCC(N)=O)NC(=O)CNC(=O)[C@@H]1CCCN1C(=O)[C@H](CCCCN)NC(=O)[C@H](Cc1ccccc1)NC(=O)[C@H](CC(N)=O)NC(=O)[C@H](CC(C)C)NC(=O)[C@H](CC(C)C)NC(=O)[C@H](Cc1c[nH]cn1)NC(=O)[C@@H]1CCCN1)C(=O)N[C@@H](Cc1ccc(O)cc1)C(=O)O` [compound 41] (H-PHLLNFKPGQPMY-OH; N-terminus and C-terminus assumed) were less than 90% and less than 90%.
As to `CC[C@H](C)[C@H](NC(=O)[C@@H](NC(=O)[C@H](Cc1c[nH]cn1)NC(=O)[C@@H]1CCCN1)[C@@H](C)O)C(=O)N[C@@H](CCC(N)=O)C(=O)N[C@@H](CC(C)C)C(=O)N[C@@H](Cc1c[nH]c2ccccc12)C(=O)N[C@@H](CCCCN)C(=O)NCC(=O)N[C@@H](CCC(N)=O)C(=O)N1CCC[C@H]1C(=O)N[C@@H](CCSC)C(=O)N[C@@H](Cc1ccc(O)cc1)C(=O)O` [compound 169] (H-PHTIQLWKGQPMY-OH; N-terminus and C-terminus assumed), the “Inhibition at 50 μM” value is reported as less than 90% and the “Inhibition at 100 μM” value is listed as less than 90%.
Consider `CSCC[C@H](NC(=O)[C@@H]1CCCN1C(=O)[C@H](CCC(N)=O)NC(=O)CNC(=O)[C@@H]1CCCN1C(=O)[C@H](CCCCN)NC(=O)[C@H](CC(C)C)NC(=O)[C@H](CCC(=O)O)NC(=O)[C@H](CC(C)C)NC(=O)[C@H](Cc1ccccc1)NC(=O)[C@H](Cc1c[nH]cn1)NC(=O)[C@@H](N)CCCCN)C(=O)N[C@@H](Cc1ccc(O)cc1)C(=O)O` [compound 179] (H-KHFLELKPGQPMY-OH; N-terminus and C-terminus assumed), for which the “Inhibition at 50 μM” value was less than 90% and the “Inhibition at 100 μM” value is reported as less than 90%.
For `CSCC[C@H](NC(=O)[C@H](CO)NC(=O)[C@H](C)NC(=O)CNC(=O)[C@@H]1CCCN1C(=O)[C@H](CCCCN)NC(=O)[C@H](CC(C)C)NC(=O)[C@H](CCCNC(=N)N)NC(=O)[C@H](CC(C)C)NC(=O)[C@H](Cc1c[nH]c2ccccc12)NC(=O)[C@H](Cc1c[nH]cn1)NC(=O)[C@@H](N)Cc1c[nH]c2ccccc12)C(=O)N[C@@H](Cc1ccc(O)cc1)C(=O)O` [compound 76] (H-WHWLRLKPGASMY-OH; N-terminus and C-terminus assumed), the “Inhibition at 10 μM” value is listed as less than 90%, the “Inhibition at 15 μM” value is recorded as less than 90%, the “Inhibition at 20 μM” value is 97.59% and the “Inhibition at 50 μM” value is given as 100%. The “Inhibition at 100 μM” value is reported as 100%.
For `CSCC[C@H](NC(=O)CNC(=O)[C@H](CCC(N)=O)NC(=O)CNC(=O)[C@H](Cc1ccc(O)cc1)NC(=O)[C@H](CCCCN)NC(=O)[C@H](CC(C)C)NC(=O)[C@H](CCC(N)=O)NC(=O)[C@@H](NC(=O)[C@H](Cc1c[nH]c2ccccc12)NC(=O)[C@H](CCC(N)=O)NC(=O)[C@@H](N)CCCCN)C(C)C)C(=O)N[C@@H](Cc1ccc(O)cc1)C(=O)O` [compound 123] (H-KQWVQLKYGQGMY-OH; N-terminus and C-terminus assumed), the “Inhibition at 50 μM” value is reported as less than 90% and the “Inhibition at 100 μM” value is on record as 100%.
For `CSCC[C@H](NC(=O)[C@@H]1CCCN1C(=O)[C@H](CCC(N)=O)NC(=O)CNC(=O)[C@H](CC(N)=O)NC(=O)[C@H](CCCCN)NC(=O)[C@H](CC(C)C)NC(=O)[C@H](CCC(N)=O)NC(=O)[C@@H](NC(=O)[C@H](Cc1c[nH]c2ccccc12)NC(=O)[C@H](Cc1c[nH]cn1)NC(=O)[C@@H]1CCCN1)C(C)C)C(=O)N[C@@H](Cc1ccc(O)cc1)C(=O)O` [compound 173] (H-PHWVQLKNGQPMY-OH; N-terminus and C-terminus assumed), in that order: less than 90% and less than 90%.
For `CSCC[C@H](NC(=O)[C@@H]1CCCN1C(=O)[C@H](CCC(=O)O)NC(=O)CNC(=O)[C@@H]1CCCN1C(=O)[C@H](CCCCN)NC(=O)[C@H](Cc1ccccc1)NC(=O)[C@H](CCC(N)=O)NC(=O)CNC(=O)[C@H](Cc1c[nH]c2ccccc12)NC(=O)[C@H](CCCNC(=N)N)NC(=O)[C@@H](N)Cc1c[nH]c2ccccc12)C(=O)N[C@@H](Cc1ccc(O)cc1)C(=O)O` [compound 33] (H-WRWGQFKPGEPMY-OH; N-terminus and C-terminus assumed), in that order: less than 90% and less than 90%.
As for `CSCC[C@H](NC(=O)[C@@H]1CCCN1C(=O)[C@H](CCC(N)=O)NC(=O)CNC(=O)[C@@H](NC(=O)[C@H](CCCCN)NC(=O)[C@H](CC(C)C)NC(=O)[C@H](CCCNC(=N)N)NC(=O)[C@@H](NC(=O)[C@H](Cc1c[nH]c2ccccc12)NC(=O)[C@H](CCCCN)NC(=O)[C@@H](N)Cc1c[nH]c2ccccc12)C(C)C)[C@@H](C)O)C(=O)N[C@@H](Cc1ccc(O)cc1)C(=O)O` [compound 53] (H-WKWVRLKTGQPMY-OH; N-terminus and C-terminus assumed), the “Inhibition at 10 μM” value is on record as less than 90%, the “Inhibition at 15 μM” value is reported as less than 90%, the “Inhibition at 20 μM” value stood at 100% and the “Inhibition at 50 μM” value was 100%. The “Inhibition at 100 μM” value was found to be 100%.
As for `CSCC[C@H](NC(=O)[C@@H]1CCCN1C(=O)[C@H](CCC(N)=O)NC(=O)CNC(=O)[C@@H]1CCCN1C(=O)[C@H](CCCCN)NC(=O)[C@H](CC(C)C)NC(=O)[C@@H](NC(=O)[C@H](CC(C)C)NC(=O)[C@H](Cc1ccccc1)NC(=O)[C@H](Cc1c[nH]cn1)NC(=O)[C@@H](N)CCCCN)[C@@H](C)O)C(=O)N[C@@H](Cc1ccc(O)cc1)C(=O)O` [compound 96] (H-KHFLTLKPGQPMY-OH; N-terminus and C-terminus assumed), the “Inhibition at 10 μM” value is given as less than 90%, the “Inhibition at 20 μM” value was less than 90%, the “Inhibition at 50 μM” value is on record as 95.86% and the “Inhibition at 100 μM” value stood at 99.87%.
Take `CSCC[C@H](NC(=O)[C@H](Cc1c[nH]cn1)NC(=O)[C@@H]1CCCN1)C(=O)N[C@H](C(=O)N[C@@H](CCCNC(=N)N)C(=O)N[C@@H](CC(C)C)C(=O)N[C@@H](CCCCN)C(=O)N1CCC[C@H]1C(=O)NCC(=O)N[C@@H](CCC(N)=O)C(=O)N1CCC[C@H]1C(=O)N[C@@H](CCSC)C(=O)N[C@@H](Cc1ccc(O)cc1)C(=O)O)C(C)C` [compound 132] (H-PHMVRLKPGQPMY-OH; N-terminus and C-terminus assumed): the “Inhibition at 50 μM” value is less than 90% and the “Inhibition at 100 μM” value amounted to 94.13%.
Taken in the same sequence, the figures for `CC[C@H](C)[C@H](NC(=O)[C@H](CCC(N)=O)NC(=O)[C@H](CC(C)C)NC(=O)[C@H](Cc1ccccc1)NC(=O)[C@H](Cc1c[nH]cn1)NC(=O)[C@@H](N)Cc1c[nH]c2ccccc12)C(=O)N[C@@H](CCCCN)C(=O)N1CCC[C@H]1C(=O)NCC(=O)N[C@@H](CCC(=O)O)C(=O)N1CCC[C@H]1C(=O)N[C@@H](CCSC)C(=O)N[C@@H](Cc1ccc(O)cc1)C(=O)O` [compound 150] (H-WHFLQIKPGEPMY-OH; N-terminus and C-terminus assumed) were less than 90% and less than 90%.

The record behind these values is patent US20250382332A1, “NOVEL ALPHA-FACTOR BASED PEPTIDES WITH ANTIFUNGAL ACTIVITY” (INVAIO SCIENCES, INC., priority 2024, published 2025).
